Test results: patent US8242174B2 (priority 2007, dated 2012)

Target: Lethal factor protease (Bacillus anthracis, UniProt P15917)
Assay: biochemical

Lethal factor protease, sequence (P15917 34-809 limits assumed): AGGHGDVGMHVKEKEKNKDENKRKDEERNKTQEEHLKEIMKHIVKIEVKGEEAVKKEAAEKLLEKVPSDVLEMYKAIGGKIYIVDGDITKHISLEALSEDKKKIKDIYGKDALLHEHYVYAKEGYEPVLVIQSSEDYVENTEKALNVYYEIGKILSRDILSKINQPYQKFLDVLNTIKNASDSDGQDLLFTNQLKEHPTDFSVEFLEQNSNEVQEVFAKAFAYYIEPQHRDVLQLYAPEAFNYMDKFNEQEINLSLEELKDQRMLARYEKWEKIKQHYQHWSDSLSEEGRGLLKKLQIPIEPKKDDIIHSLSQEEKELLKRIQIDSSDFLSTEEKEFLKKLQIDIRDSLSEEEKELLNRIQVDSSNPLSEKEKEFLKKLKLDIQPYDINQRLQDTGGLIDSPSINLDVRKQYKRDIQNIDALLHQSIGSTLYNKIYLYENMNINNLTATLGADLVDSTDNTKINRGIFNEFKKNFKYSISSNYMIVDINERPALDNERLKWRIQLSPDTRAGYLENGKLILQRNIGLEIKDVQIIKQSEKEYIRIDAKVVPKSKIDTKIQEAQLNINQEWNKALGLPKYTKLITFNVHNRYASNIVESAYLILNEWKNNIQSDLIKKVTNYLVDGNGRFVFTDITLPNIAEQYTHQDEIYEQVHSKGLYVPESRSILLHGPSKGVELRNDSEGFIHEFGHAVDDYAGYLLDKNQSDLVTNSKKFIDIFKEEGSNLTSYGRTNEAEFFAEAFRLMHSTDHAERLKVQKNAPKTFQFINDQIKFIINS

Row | Compound | Ki [nM]
1 | Cc1cc(N[C@@H](C)C(=O)NO)cc(C)c1F [Compound 167498, (S)-2-(4-Fluoro-3,5-dimethyl-phenylamino)-N-hydroxy-propionamide] | 51000
2 | Cc1cc(N[C@H](CCCCNC(=O)OCc2ccccc2)C(=O)NO)cc(C)c1F [Compound 167503, (R)-[5-(4-Fluoro-3,5-dimethyl-phenylamino)-5-hydroxycarbamoyl-pentyl]-carbamic acid benzyl ester] | 290
3 | Cc1cc(N[C@H](CCCCN)C(=O)NO)cc(C)c1F [Compound 167517, (R)-6-Amino-2-(4-fluoro-3,5-dimethyl-phenylamino)-hexanoic acid hydroxyamide] | 250
4 | Cc1cc(N[C@H](CCCCNS(=O)(=O)c2cc(C)c(F)c(C)c2)C(=O)NO)cc(C)c1F [Compound 167530, (R)-6-(4-Fluoro-3,5-dimethyl-benzenesulfonylamino)-2-(4-fluoro-3,5-dimethyl-phenylamino)-hexanoic acid hydroxyamide] | 370
5 | Cc1cc(N[C@H](CCCCNS(C)(=O)=O)C(=O)NO)cc(C)c1F [Compound 167531, (R)-2-(4-Fluoro-3,5-dimethyl-phenylamino)-6-methanesulfonylamino-hexanoic acid hydroxyamide] | 1000
6 | Cc1cc(C(=O)NCCCC[C@@H](Nc2cc(C)c(F)c(C)c2)C(=O)NO)ccc1F [Compound 167551, (R)-4-Fluoro-N-[5-(4-fluoro-3,5-dimethyl-phenylamino)-5-hydroxycarbamoyl-pentyl]-3-methyl-benzamide] | 390
7 | CC(=O)NCCCC[C@@H](Nc1cc(C)c(F)c(C)c1)C(=O)NO [Compound 167552, (R)-6-Acetylamino-2-(4-fluoro-3,5-dimethyl-phenylamino)-hexanoic acid hydroxyamide] | 2530
8 | Cc1cc(N[C@H](CCCCNC(=O)OC(C)(C)C)C(=O)NO)cc(C)c1F [Compound 167561, (R)-[5-(4-Fluoro-3,5-dimethyl-phenylamino)-5-hydroxycarbamoyl-pentyl]-carbamic acid tert-butyl ester] | 710
9 | Cc1cc(N[C@H](CCCCNC(=O)c2ccccc2)C(=O)NO)cc(C)c1F [Compound 167587, (R)—N-[5-(4-Fluoro-3,5-dimethyl-phenylamino)-5-hydroxycarbamoyl-pentyl]-benzamide] | 970
10 | Cc1cc(N[C@H](CCCCNC(=O)Cc2ccccc2)C(=O)NO)cc(C)c1F [Compound 167588, (R)-2-(4-Fluoro-3,5-dimethyl-phenylamino)-6-phenylacetylamino-hexanoic acid hydroxyamide] | 1200
11 | Cc1cc(N[C@H](CCCCNS(=O)(=O)c2ccc(F)cc2)C(=O)NO)cc(C)c1F [Compound 167589, (R)-6-(4-Fluoro-benzenesulfonylamino)-2-(4-fluoro-3,5-dimethyl-phenylamino)-hexanoic acid hydroxyamide] | 1250
12 | Cc1cc(S(=O)(=O)NCCCC[C@@H](Nc2cc(C)c(F)c(C)c2)C(=O)NO)ccc1F [Compound 167590, (R)-2-(4-Fluoro-3,5-dimethyl-phenylamino)-6-(4-fluoro-3-methyl-benzenesulfonylamino)-hexanoic acid hydroxyamide] | 250
13 | Cc1cc(N[C@H](CCCCNC(=O)Cc2ccc(-n3c(C)ccc3C)cc2)C(=O)NO)cc(C)c1F [Compound 167592, (R)-6-{2-[4-(2,5-Dimethyl-pyrrol-1-yl)-phenyl]-acetylamino}-2-(4-fluoro-3,5-dimethyl-phenylamino)-hexanoic acid hydroxyamide] | 1440
14 | Cc1cc(N[C@H](CCCCn2c(C)ccc2C)C(=O)NO)cc(C)c1F [Compound 167605, (R)-6-(2,5-Dimethyl-pyrrol-1-yl)-2-(4-fluoro-3,5-dimethyl-phenylamino)-hexanoic acid hydroxyamide] | 2000
15 | Cc1cc(N[C@H](CCCCNC(=O)C(c2ccccc2)c2ccccc2)C(=O)NO)cc(C)c1F [Compound 167610, (R)-6-Diphenylacetylamino-2-(4-fluoro-3,5-dimethyl-phenylamino)-hexanoic acid hydroxyamide] | 1340
16 | Cc1cc(N[C@H](CCCCNC(=O)Cc2cccc(Oc3ccccc3)c2)C(=O)NO)cc(C)c1F [Compound 167611, (R)-2-(4-Fluoro-3,5-dimethyl-phenylamino)-6-[2-(3-phenoxy-phenyl)-acetylamino]-hexanoic acid hydroxyamide] | 740
17 | Cc1cc(N[C@H](CCCCNS(=O)(=O)c2ccc(C(=O)O)cc2)C(=O)NO)cc(C)c1F [Compound 167613, (R)-4-[5-(4-Fluoro-3,5-dimethyl-phenylamino)-5-hydroxycarbamoyl-pentylsulfamoyl]-benzoic acid] | 3660
18 | Cc1cc(NC(=O)NCCCC[C@@H](Nc2cc(C)c(F)c(C)c2)C(=O)NO)ccc1F [Compound 167614, (R)-2-(4-Fluoro-3,5-dimethyl-phenylamino)-6-[3-(4-fluoro-3-methyl-phenyl)-ureido]-hexanoic acid hydroxyamide] | 280
19 | Cc1cc(N[C@H](CCCCNS(=O)(=O)c2ccccc2)C(=O)NO)cc(C)c1F [Compound 167615, (R)-6-Benzenesulfonylamino-2-(4-fluoro-3,5-dimethyl-phenylamino)-hexanoic acid hydroxyamide] | 840
20 | Cc1cc(N[C@H](CCCCNC(=O)CCC(=O)O)C(=O)NO)cc(C)c1F [Compound 167620, (R)—N-[5-(4-Fluoro-3,5-dimethyl-phenylamino)-5-hydroxycarbamoyl-pentyl]-succinamic acid] | 3500

Row | Compound | Ki [nM]
21 | Cc1cc(N[C@H](CCCCNS(=O)(=O)c2cccc(C(=O)O)c2)C(=O)NO)cc(C)c1F [Compound 167621, (R)-3-[5-(4-Fluoro-3,5-dimethyl-phenylamino)-5-hydroxycarbamoyl-pentylsulfamoyl]-benzoic acid] | 1570
22 | Cc1cc(N[C@H](CCCCNS(=O)(=O)c2cccc([N+](=O)[O-])c2)C(=O)NO)cc(C)c1F [Compound 167622, (R)-2-(4-Fluoro-3,5-dimethyl-phenylamino)-6-(3-nitro-benzenesulfonylamino)-hexanoic acid hydroxyamide] | 150
23 | CCCCC(Nc1cc(C)cc(Cl)c1)C(=O)NO (stereo not drawn) [Compound 167645, 2-(3-Chloro-5-methyl-phenylamino)-hexanoic acid hydroxyamide] | 2200
24 | Cc1cc(N[C@H](CCCCNS(=O)(=O)c2ccc(N)cc2)C(=O)NO)cc(C)c1F [Compound 167656, (R)-6-(4-Amino-benzenesulfonylamino)-2-(4-fluoro-3,5-dimethyl-phenylamino)-hexanoic acid hydroxyamide] | 610
25 | CNc1ccc(S(=O)(=O)NCCCC[C@@H](Nc2cc(C)c(F)c(C)c2)C(=O)NO)cc1 [Compound 167657, (R)-2-(4-Fluoro-3,5-dimethyl-phenylamino)-6-(4-methylamino-benzenesulfonylamino)-hexanoic acid hydroxyamide] | 410
26 | CNc1cccc(S(=O)(=O)NCCCC[C@@H](Nc2cc(C)c(F)c(C)c2)C(=O)NO)c1 [Compound 167667, (R)-2-(4-Fluoro-3,5-dimethyl-phenylamino)-6-(3-methylamino-benzenesulfonylamino)-hexanoic acid hydroxyamide] | 590
27 | Cc1cccc(CNCCCC[C@@H](Nc2cc(C)c(F)c(C)c2)C(=O)NO)c1 [Compound 167698, (R)-2-(4-Fluoro-3,5-dimethyl-phenylamino)-6-(3-methyl-benzylamino)-hexanoic acid hydroxyamide] | 160
28 | Cc1cc(N[C@H](CCCCNS(=O)(=O)c2ccc(N(C)C)cc2)C(=O)NO)cc(C)c1F [Compound 167699, (R)-6-(4-Dimethylamino-benzenesulfonylamino)-2-(4-fluoro-3,5-dimethyl-phenylamino)-hexanoic acid hydroxyamide] | 430
29 | Cc1cc(N[C@H](CCCCNS(=O)(=O)c2cccc(N(C)C)c2)C(=O)NO)cc(C)c1F [Compound 167700, (R)-6-(3-Dimethylamino-benzenesulfonylamino)-2-(4-fluoro-3,5-dimethyl-phenylamino)-hexanoic acid hydroxyamide] | 880
30 | CCCCC(Nc1cc(Cl)cc(Cl)c1)C(=O)NO (stereo not drawn) [Compound 167718, 2-(3,5-Dichloro-phenylamino)-hexanoic acid hydroxyamide] | 12200
31 | CCCCC(Nc1cccc(C#N)c1)C(=O)NO (stereo not drawn) [Compound 167719, 2-(3-Cyano-phenylamino)-hexanoic acid hydroxyamide] | 49000
32 | CCCCC(Nc1ccc(F)c(C#N)c1)C(=O)NO (stereo not drawn) [Compound 167720, 2-(3-Cyano-4-fluoro-phenylamino)-hexanoic acid hydroxyamide] | 11800
33 | CCCCC(Nc1cc(C)cc(F)c1)C(=O)NO (stereo not drawn) [Compound 167722, 2-(3-Fluoro-5-methyl-phenylamino)-hexanoic acid hydroxyamide] | 19000
34 | Cc1cc(N[C@H](CCCCNCc2ccccc2)C(=O)NO)cc(C)c1F [Compound 167736, (R)-6-Benzylamino-2-(4-fluoro-3,5-dimethyl-phenylamino)-hexanoic acid hydroxyamide] | 110
35 | Cc1cc(N[C@H](CCCCNCc2cccc([N+](=O)[O-])c2)C(=O)NO)cc(C)c1F [Compound 167737, (R)-2-(4-Fluoro-3,5-dimethyl-phenylamino)-6-(3-nitro-benzylamino)-hexanoic acid hydroxyamide] | 70
36 | Cc1cc(N[C@H](CCCCN(Cc2ccccc2)Cc2ccccc2)C(=O)NO)cc(C)c1F [Compound 167738, (R)-6-Dibenzylamino-2-(4-fluoro-3,5-dimethyl-phenylamino)-hexanoic acid hydroxyamide] | 430
37 | Cc1cc(CNCCCC[C@@H](Nc2cc(C)c(F)c(C)c2)C(=O)NO)cc(C)c1F [Compound 167759, 6-(4-Fluoro-3,5-dimethyl-benzylamino)-2-(4-fluoro-3,5-dimethyl-phenylamino)-hexanoic acid hydroxyamide] | 70
38 | CCCCC(Nc1cc(OC)cc(OC)c1)C(=O)NO (stereo not drawn) [Compound 167772, 2-(3,5-Dimethoxy-phenylamino)-hexanoic acid hydroxyamide] | 257000
39 | CCCCC(Nc1ccc(F)c(OC)c1)C(=O)NO (stereo not drawn) [Compound 167793, 2-(4-Fluoro-3-methoxy-phenylamino)-hexanoic acid hydroxyamide] | 157000
